Assay results as given in the CheMixHub viscosity set.

Experiment: xn = mol fraction of the nth substance listed

CCCCN + CCCCO
Conditions | viscosity [mPa·s]
293.15 K, 101 kPa, x1 = 0.1 | 2.51
293.15 K, 101 kPa, x1 = 0.3 | 1.85
293.15 K, 101 kPa, x1 = 0.5 | 1.25
293.15 K, 101 kPa, x1 = 0.7 | 0.95
293.15 K, 101 kPa, x1 = 0.9 | 0.68
298.15 K, 100 kPa, x2 = 0.099 | 0.553
298.15 K, 100 kPa, x2 = 0.195 | 0.663
298.15 K, 100 kPa, x2 = 0.294 | 0.794
298.15 K, 100 kPa, x2 = 0.401 | 0.951
298.15 K, 100 kPa, x2 = 0.493 | 1.101
298.15 K, 100 kPa, x2 = 0.6 | 1.312
298.15 K, 100 kPa, x2 = 0.695 | 1.531
298.15 K, 100 kPa, x2 = 0.8 | 1.818
298.15 K, 100 kPa, x2 = 0.893 | 2.131
298.15 K, 101.32 kPa, x2 = 0.0983 | 0.5497
298.15 K, 101.32 kPa, x2 = 0.1986 | 0.6488
298.15 K, 101.32 kPa, x2 = 0.2972 | 0.7685
298.15 K, 101.32 kPa, x2 = 0.4004 | 0.9222
298.15 K, 101.32 kPa, x2 = 0.4976 | 1.085
298.15 K, 101.32 kPa, x2 = 0.5988 | 1.291
298.15 K, 101.32 kPa, x2 = 0.7009 | 1.518
298.15 K, 101.32 kPa, x2 = 0.7974 | 1.782
298.15 K, 101.32 kPa, x2 = 0.899 | 2.123
303.15 K, 101 kPa, x1 = 0.01068 | 2.228
303.15 K, 101 kPa, x1 = 0.02055 | 2.205
303.15 K, 101 kPa, x1 = 0.0277 | 2.185
303.15 K, 101 kPa, x1 = 0.04127 | 2.155
303.15 K, 101 kPa, x1 = 0.05004 | 2.135
303.15 K, 101 kPa, x1 = 0.05896 | 2.116
303.15 K, 101 kPa, x1 = 0.07244 | 2.087
303.15 K, 101 kPa, x1 = 0.08331 | 2.059
303.15 K, 101 kPa, x1 = 0.09019 | 2.04
303.15 K, 101.33 kPa, x1 = 0.092 | 2.08
303.15 K, 101.33 kPa, x1 = 0.1008 | 1.909
303.15 K, 101.33 kPa, x1 = 0.1886 | 1.829
303.15 K, 101.33 kPa, x1 = 0.2007 | 1.627
303.15 K, 101.33 kPa, x1 = 0.2824 | 1.565
303.15 K, 101.33 kPa, x1 = 0.3004 | 1.395
303.15 K, 101.33 kPa, x1 = 0.3824 | 1.314
303.15 K, 101.33 kPa, x1 = 0.4 | 1.191
303.15 K, 101.33 kPa, x1 = 0.5009 | 1.019
303.15 K, 101.33 kPa, x1 = 0.5186 | 1.036
303.15 K, 101.33 kPa, x1 = 0.6001 | 0.869
303.15 K, 101.33 kPa, x1 = 0.6186 | 0.8627
303.15 K, 101.33 kPa, x1 = 0.6997 | 0.734
303.15 K, 101.33 kPa, x1 = 0.7158 | 0.7221
303.15 K, 101.33 kPa, x1 = 0.7999 | 0.625
303.15 K, 101.33 kPa, x1 = 0.8131 | 0.6087
303.15 K, 101.33 kPa, x1 = 0.9001 | 0.536
303.15 K, 101.33 kPa, x1 = 0.9011 | 0.5224
313.15 K, 101.3 kPa, x2 = 0.0992 | 0.4434
313.15 K, 101.3 kPa, x2 = 0.1967 | 0.516
313.15 K, 101.3 kPa, x2 = 0.2981 | 0.602
313.15 K, 101.3 kPa, x2 = 0.398 | 0.7038
313.15 K, 101.3 kPa, x2 = 0.4956 | 0.8181
313.15 K, 101.3 kPa, x2 = 0.5979 | 0.9549
313.15 K, 101.3 kPa, x2 = 0.6978 | 1.108
313.15 K, 101.3 kPa, x2 = 0.8009 | 1.289
313.15 K, 101.3 kPa, x2 = 0.9 | 1.503
313.15 K, 101.33 kPa, x1 = 0.092 | 1.662
313.15 K, 101.33 kPa, x1 = 0.1008 | 1.518
313.15 K, 101.33 kPa, x1 = 0.1886 | 1.476
313.15 K, 101.33 kPa, x1 = 0.2007 | 1.305
313.15 K, 101.33 kPa, x1 = 0.2824 | 1.286
313.15 K, 101.33 kPa, x1 = 0.3004 | 1.12
313.15 K, 101.33 kPa, x1 = 0.3824 | 1.086
313.15 K, 101.33 kPa, x1 = 0.4 | 0.976
313.15 K, 101.33 kPa, x1 = 0.5009 | 0.843
313.15 K, 101.33 kPa, x1 = 0.5186 | 0.856
313.15 K, 101.33 kPa, x1 = 0.6001 | 0.73
313.15 K, 101.33 kPa, x1 = 0.6186 | 0.7186
313.15 K, 101.33 kPa, x1 = 0.6997 | 0.622
313.15 K, 101.33 kPa, x1 = 0.7158 | 0.6085
313.15 K, 101.33 kPa, x1 = 0.7999 | 0.539
313.15 K, 101.33 kPa, x1 = 0.8131 | 0.5227
313.15 K, 101.33 kPa, x1 = 0.9001 | 0.47
313.15 K, 101.33 kPa, x1 = 0.9011 | 0.4542
323.15 K, 101.33 kPa, x1 = 0.1008 | 1.228
323.15 K, 101.33 kPa, x1 = 0.2007 | 1.065
323.15 K, 101.33 kPa, x1 = 0.3004 | 0.92
323.15 K, 101.33 kPa, x1 = 0.4 | 0.803
323.15 K, 101.33 kPa, x1 = 0.5009 | 0.7
323.15 K, 101.33 kPa, x1 = 0.6001 | 0.615
323.15 K, 101.33 kPa, x1 = 0.6997 | 0.534
323.15 K, 101.33 kPa, x1 = 0.7999 | 0.467
323.15 K, 101.33 kPa, x1 = 0.9001 | 0.407

O=C([O-])c1ccccc1O.[Na+] + O
viscosity [mPa·s]
Conditions | 293.15 K | 298.15 K | 303.15 K | 308.15 K | 313.15 K | 318.15 K
100 kPa, x1 = 5.685e-05 | 1.003 | 0.8913 | 0.7982 | 0.7198 | 0.6537 | –
100 kPa, x1 = 0.0001129 | 1.006 | 0.8924 | 0.7983 | 0.7207 | 0.6543 | –
100 kPa, x1 = 0.0004518 | 1.013 | 0.8989 | 0.8049 | 0.7259 | 0.659 | –
100 kPa, x1 = 0.0009067 | 1.024 | 0.9079 | 0.8132 | 0.7334 | 0.6657 | –
100 kPa, x1 = 0.001366 | 1.037 | 0.9164 | 0.8198 | 0.7394 | 0.6711 | –
100 kPa, x1 = 0.001826 | 1.045 | 0.9259 | 0.8289 | 0.748 | 0.6781 | –
100 kPa, x1 = 0.002292 | 1.056 | 0.9367 | 0.8375 | 0.7552 | 0.6844 | –
100 kPa, x1 = 0.00276 | 1.067 | 0.9449 | 0.8458 | 0.7614 | 0.6908 | –
100 kPa, x1 = 0.003231 | 1.076 | 0.9506 | 0.8501 | 0.7666 | 0.6959 | –
101 kPa, x1 = 0.000472 | 1.014 | 0.9009 | – | – | – | –
101 kPa, x1 = 0.000925 | 1.025 | 0.9102 | – | – | – | –
101 kPa, x1 = 0.001 | 1.025 | 0.9152 | 0.8184 | 0.7362 | 0.6684 | 0.6111
101 kPa, x1 = 0.00135 | 1.036 | 0.9188 | – | – | – | –
101 kPa, x1 = 0.0018 | 1.046 | 0.9279 | – | – | – | –
101 kPa, x1 = 0.002 | 1.05 | 0.9359 | 0.8392 | 0.7538 | 0.6817 | 0.6235
101 kPa, x1 = 0.00224 | 1.057 | 0.937 | – | – | – | –
101 kPa, x1 = 0.002288 | – | 0.946 | 0.842 | 0.757 | 0.684 | –
101 kPa, x1 = 0.002647 | 1.067 | 0.9454 | – | – | – | –
101 kPa, x1 = 0.003578 | 1.089 | – | – | – | – | –
101 kPa, x1 = 0.004685 | – | 0.983 | 0.875 | 0.786 | 0.714 | –
101 kPa, x1 = 0.005317 | 1.131 | – | – | – | – | –
101 kPa, x1 = 0.007012 | 1.171 | – | – | – | – | –
101 kPa, x1 = 0.009424 | – | 1.083 | 0.963 | 0.863 | 0.781 | –
101 kPa, x1 = 0.01337 | – | 1.188 | 1.055 | 0.944 | 0.846 | –
101 kPa, x1 = 0.01919 | – | 1.354 | 1.195 | 1.063 | 0.95 | –
101 kPa, x1 = 0.02192 | – | 1.44 | 1.265 | 1.125 | 1.008 | –
101 kPa, x1 = 0.02737 | – | 1.628 | 1.423 | 1.261 | 1.132 | –
